Assay results from patent US7381744B1, “Method of treating osteoporosis comprising vacuolar-type (H+)-ATPase-inhibiting compounds” (The United States of America as represented by the …, priority 1999, dated 2008).

Experiments:
Assay type in all cases: biochemical
[1] = tested on: mammalian vacuolar-type (H+)-ATPase (from chromaffin granule membranes); assay: mammalian vacuolar-type (H+)-ATPase inhibition, side-by-side test; details: mammalian versus fungal enzyme
Description: The inhibitory data were obtained using the same procedures and biological preparations described in Bowman et al., Proc. Natl. Acad. Sci. USA, 85, 7972-7976 (November 1988).

[2] = tested on: vacuolar-type (H+)-ATPase derived from macrophage cells (J774); assay: vacuolar-type (H+)-ATPase inhibition assay, membrane vesicles (J774); details: bafilomycin-sensitive activity; oligomycin 5 μg/ml and vanadate 1 mM present; 37°, 30 minutes
Description: (§1) Inhibition of bafilomycin-sensitive vacuolar-type (H+)-ATPase activity was measured in partially purified membrane vesicle preparations from human osteoclastoma cells (hOc), human renal cortical cells (hK), and macrophage cells (J774). The vesicles were prepared by appropriate adaptations of methods described in Gagliardi et al., J. Med. Chem., 41, 1568-1573 (1998); and Gagliardi et al., J. Med. Chem., 41, 1883-1893 (1998).
(§2) Vacuolar-type (H+)-ATPase assays were performed in the presence of oligomycin (5 μg/ml) and vanadate (1 mM) as inhibitors of F- and P-ATPases, respectively. A […] method was used to quantitate the residual bafilomycin-sensitive vacuolar-type (H+)-ATPase activity (see Chan et al., Anal. Biochem., 157, 375-380 (1986)). The assay measures the release of inorganic phosphate from ATP at 37° during 30 minutes of incubation. The reaction is initiated by the addition of MgSO4 ([…]).

[3] = tested on: vacuolar-type (H+)-ATPase derived from human kidney cells (hK); assay: vacuolar-type (H+)-ATPase inhibition assay, membrane vesicles (hK); details: bafilomycin-sensitive activity; oligomycin 5 μg/ml and vanadate 1 mM present; 37°, 30 minutes
Description: as §1, §2

SMILES: CO/N=C/C=C\C(=O)N/C=C/CC1CC(=O)OC(C)/C=C/C(O)/C(C)=C\Cc2cccc(O)c2C(=O)O1 (stereo not drawn) [lobatamide A]
- selectivity for mammalian versus fungal vacuolar-type (H+)-ATPase [1]: highly selective
- IC50 [2]: 2.8 nM
- IC50 [3]: 1.8 nM
